Test results as given in ChEMBL document CHEMBL1201862, “PubChem BioAssay data set” (2004).
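Dose response: 5 concentrations. Exposure: 48 h. Format: 96-well plates. Endpoint: linear interpolation; highest concentration if not reached. At the GI50, growth is halved.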 Active and inactive are the calls of the source. Cut-off read from the data, not from the text of the source: active = GI50 up to about 1.1 µM and inactive = higher.

Tests used:
Assay in all cases: NCI anticancer screen, dose series, 48 h
HCT-116 = system: HCT-116
UACC-62 = system: UACC-62
OVCAR-3 = system: OVCAR-3
HCT-15 = system: HCT-15
HL-60 = system: HL-60
T47D = system: T47D
OVCAR-5 = system: OVCAR-5
ACHN = system: ACHN
CAKI-1 = system: CAKI-1
SNB-75 = system: SNB-75
SF-295 = system: SF-295
PC-3 = system: PC-3
OVCAR-4 = system: OVCAR-4
SN12C = system: SN12C
786-0 = system: 786-0
NCI-H226 = system: NCI-H226
HCC 2998 = system: HCC 2998
SR = system: SR

Row | Structure (SMILES) | GI50 (HCT-116) | GI50 (UACC-62) | GI50 (OVCAR-3) | GI50 (HCT-15) [µM] | GI50 (HL-60) | GI50 (T47D) | GI50 (OVCAR-5) | GI50 (ACHN) | GI50 (CAKI-1) | GI50 (SNB-75) | GI50 (SF-295) | GI50 (PC-3) | GI50 (OVCAR-4) | GI50 (SN12C) | GI50 (786-0) | GI50 (NCI-H226) | GI50 (HCC 2998) | GI50 (SR)
1 | O=C(O)CNc1ccc(C(=O)O)cc1 | > 100 µM (inactive) | > 100 µM (inactive) | > 100 µM (inactive) | > 100 | 2.85 µM (inactive) | > 100 µM (inactive) | > 100 µM (inactive) | > 100 µM (inactive) | > 100 µM (inactive) | > 100 µM (inactive) | > 100 µM (inactive) | > 100 µM (inactive) | > 100 µM (inactive) | > 100 µM (inactive) | > 100 µM (inactive) | > 100 µM (inactive) | – | –
2 | Cc1cn(C2CC(OC(c3ccccc3)(c3ccccc3)c3ccccc3)C(COC(c3ccccc3)(c3ccccc3)c3ccccc3)O2)c(=O)[nH]c1=O (stereo unspecified) | 17.1 µM (inactive) | > 100 µM (inactive) | > 100 µM (inactive) | 59.2 | 53.1 µM (inactive) | – | 53.1 µM (inactive) | 68.4 µM (inactive) | > 100 µM (inactive) | 58.7 µM (inactive) | > 100 µM (inactive) | 16 µM (inactive) | > 100 µM (inactive) | 53.6 µM (inactive) | > 100 µM (inactive) | 26.1 µM (inactive) | > 100 µM (inactive) | > 100 µM (inactive)
3 | N#CC(Cc1ccccc1)N(CCC1=CCCCC1)C(c1ccccc1)c1ccccc1 (stereo unspecified) | 15.8 µM (inactive) | > 100 µM (inactive) | > 100 µM (inactive) | 42.9 | – | 42.3 µM (inactive) | 95.7 µM (inactive) | > 100 µM (inactive) | > 100 µM (inactive) | > 100 µM (inactive) | > 100 µM (inactive) | 73.6 µM (inactive) | > 100 µM (inactive) | – | > 100 µM (inactive) | – | 32 µM (inactive) | –
4 | C=CCN1CCC(O)(c2cc(C(=O)OCC)[nH]c2-c2cc(C)no2)C1 (stereo unspecified) | > 100 µM (inactive) | > 100 µM (inactive) | > 100 µM (inactive) | > 100 | > 100 µM (inactive) | > 100 µM (inactive) | > 100 µM (inactive) | > 100 µM (inactive) | > 100 µM (inactive) | > 100 µM (inactive) | > 100 µM (inactive) | > 100 µM (inactive) | > 100 µM (inactive) | > 100 µM (inactive) | > 100 µM (inactive) | > 100 µM (inactive) | – | –
5 | Cc1ccc(C(=O)Nc2ccc(CP(=O)(O)O)cc2)cc1NC(=O)c1cccc(NC(=O)Nc2cccc(C(=O)Nc3cc(C(=O)Nc4ccc(CP(=O)(O)O)cc4)ccc3C)c2)c1 | > 100 µM (inactive) | > 100 µM (inactive) | > 100 µM (inactive) | > 100 | > 100 µM (inactive) | > 100 µM (inactive) | > 100 µM (inactive) | > 100 µM (inactive) | > 100 µM (inactive) | > 100 µM (inactive) | > 100 µM (inactive) | > 100 µM (inactive) | > 100 µM (inactive) | > 100 µM (inactive) | > 100 µM (inactive) | > 100 µM (inactive) | > 100 µM (inactive) | –
6 | COc1ccc(-c2nc3ccccc3s2)cc1OC | 45.1 µM (inactive) | 37.4 µM (inactive) | – | 43.7 | > 100 µM (inactive) | – | > 100 µM (inactive) | 40.4 µM (inactive) | – | > 100 µM (inactive) | 25.8 µM (inactive) | 34.9 µM (inactive) | 46.6 µM (inactive) | 83.6 µM (inactive) | 44.6 µM (inactive) | – | – | > 100 µM (inactive)
7 | N#Cc1c(O)cc(=O)n2c1[nH]c1ccccc12 | > 100 µM (inactive) | > 100 µM (inactive) | > 100 µM (inactive) | > 100 | > 100 µM (inactive) | – | > 100 µM (inactive) | > 100 µM (inactive) | > 100 µM (inactive) | > 100 µM (inactive) | 64 µM (inactive) | > 100 µM (inactive) | > 100 µM (inactive) | > 100 µM (inactive) | > 100 µM (inactive) | > 100 µM (inactive) | > 100 µM (inactive) | > 100 µM (inactive)
8 | CCn1c2c(c3ccccc3c1=O)C(=O)c1ccccc1-2 | > 100 µM (inactive) | > 100 µM (inactive) | > 100 µM (inactive) | > 100 | > 100 µM (inactive) | > 100 µM (inactive) | > 100 µM (inactive) | – | > 100 µM (inactive) | > 100 µM (inactive) | > 100 µM (inactive) | > 100 µM (inactive) | > 100 µM (inactive) | > 100 µM (inactive) | > 100 µM (inactive) | > 100 µM (inactive) | – | –
9 | Cn1ccnc1SC(F)(F)c1nc2ccccc2o1 | > 100 µM (inactive) | > 100 µM (inactive) | > 100 µM (inactive) | > 100 | – | > 100 µM (inactive) | > 100 µM (inactive) | > 100 µM (inactive) | > 100 µM (inactive) | 0.043 µM (active) | > 100 µM (inactive) | > 100 µM (inactive) | > 100 µM (inactive) | > 100 µM (inactive) | > 100 µM (inactive) | > 100 µM (inactive) | > 100 µM (inactive) | –
10 | Cc1cccc2cc3c(ccc4ccccc43)c[n+]12 | 36.9 µM (inactive) | 23 µM (inactive) | 2.06 µM (inactive) | > 100 | 48.4 µM (inactive) | – | > 100 µM (inactive) | 65.3 µM (inactive) | – | 6.56 µM (inactive) | 9.86 µM (inactive) | 30.9 µM (inactive) | – | 3.18 µM (inactive) | 18 µM (inactive) | – | 16.3 µM (inactive) | 6.43 µM (inactive)
11 | Nc1ccc(/N=N/c2ccccc2)cc1 | 54.6 µM (inactive) | 27.4 µM (inactive) | 18.8 µM (inactive) | 41.2 | 13.4 µM (inactive) | – | > 100 µM (inactive) | 30.3 µM (inactive) | 93.1 µM (inactive) | 10.3 µM (inactive) | 22.2 µM (inactive) | 56.8 µM (inactive) | > 100 µM (inactive) | 69.5 µM (inactive) | 64.9 µM (inactive) | 25.4 µM (inactive) | 61.5 µM (inactive) | 19.3 µM (inactive)
12 | COC(=O)C1CC23C4=C(CCC41)CCC1CN4CC(C)C(CC(OC(C)=O)C12COC(C)=O)C43O (stereo unspecified) | > 100 µM (inactive) | > 100 µM (inactive) | > 100 µM (inactive) | > 100 | > 100 µM (inactive) | > 100 µM (inactive) | > 100 µM (inactive) | > 100 µM (inactive) | > 100 µM (inactive) | > 100 µM (inactive) | > 100 µM (inactive) | > 100 µM (inactive) | > 100 µM (inactive) | > 100 µM (inactive) | > 100 µM (inactive) | – | > 100 µM (inactive) | –
13 | CSc1nc(Cl)c(Br)c(Nc2cnc(O)nc2O)n1 | 14.6 µM (inactive) | 15.2 µM (inactive) | 14.6 µM (inactive) | 7.41 | 2.06 µM (inactive) | 13.8 µM (inactive) | – | 18.7 µM (inactive) | 1.79 µM (inactive) | 17.7 µM (inactive) | 18.9 µM (inactive) | 18.8 µM (inactive) | 15.6 µM (inactive) | 18.2 µM (inactive) | 13.4 µM (inactive) | 20.1 µM (inactive) | 17.8 µM (inactive) | –
14 | COc1ccc(C(O)(c2ccccc2)c2nccc3ccccc23)cc1 (stereo unspecified) | 4.76 µM (inactive) | 3.74 µM (inactive) | 2.48 µM (inactive) | 4.58 | 2.32 µM (inactive) | 36.8 µM (inactive) | 11.5 µM (inactive) | 12.3 µM (inactive) | 8 µM (inactive) | – | 6.76 µM (inactive) | 3.02 µM (inactive) | 11 µM (inactive) | 22.1 µM (inactive) | 7.62 µM (inactive) | – | – | 7.74 µM (inactive)
15 | O=C(O)CCC(=O)OC1N=C(c2ccccc2Cl)c2cc([N+](=O)[O-])ccc2NC1=O (stereo unspecified) | 20.5 µM (inactive) | > 100 µM (inactive) | 32.7 µM (inactive) | 36.7 | 38.5 µM (inactive) | 81.3 µM (inactive) | > 100 µM (inactive) | 57.8 µM (inactive) | > 100 µM (inactive) | 38.1 µM (inactive) | > 100 µM (inactive) | 23.6 µM (inactive) | 42.2 µM (inactive) | 46.5 µM (inactive) | 42.1 µM (inactive) | – | > 100 µM (inactive) | –
16 | O=C(CC(C(=O)c1ccco1)c1ccsc1)c1ccco1 (stereo unspecified) | > 100 µM (inactive) | 90.4 µM (inactive) | 91.2 µM (inactive) | > 100 | 89.7 µM (inactive) | 17.3 µM (inactive) | > 100 µM (inactive) | > 100 µM (inactive) | > 100 µM (inactive) | 47 µM (inactive) | > 100 µM (inactive) | – | 75.2 µM (inactive) | > 100 µM (inactive) | > 100 µM (inactive) | > 100 µM (inactive) | > 100 µM (inactive) | 67.8 µM (inactive)
17 | CCCNC1=NC(C)=CSC(Nc2ccccc2)=C1C#N | > 100 µM (inactive) | > 100 µM (inactive) | > 100 µM (inactive) | > 100 | – | > 100 µM (inactive) | > 100 µM (inactive) | > 100 µM (inactive) | > 100 µM (inactive) | – | > 100 µM (inactive) | > 100 µM (inactive) | > 100 µM (inactive) | > 100 µM (inactive) | > 100 µM (inactive) | – | – | > 100 µM (inactive)
18 | CC(C)=CCC12Cc3ccc(O)cc3C(C(C)CN1)C2C (stereo unspecified) | 59.7 µM (inactive) | > 100 µM (inactive) | – | 72.1 | 28.1 µM (inactive) | > 100 µM (inactive) | 58.9 µM (inactive) | > 100 µM (inactive) | – | 99.5 µM (inactive) | 65.2 µM (inactive) | – | > 100 µM (inactive) | > 100 µM (inactive) | > 100 µM (inactive) | > 100 µM (inactive) | 20.8 µM (inactive) | 39.2 µM (inactive)
